Test results taken from publication PMC11845477, “Exploring the principles behind antibiotics with limited resistance” (Nature Communications, 2025).

How the values were obtained:
[1] = tested on: K. pneumoniae ATCC 10031 (SEN) and K. pneumoniae ATCC 700603 (MDR); assay: Frequency-of-resistance (FoR) assay, relative MIC of mutants; type: cell-based, Klebsiella pneumoniae; conditions: Klebsiella pneumoniae ATCC 10031 (KP-SEN)
Summary of the method: (§1)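 First-step resistance is selected by exposing roughly 10^10 cells to each antibiotic on agar for 48 h at 37 °C. Ten colonies from the highest selective concentration then undergo MIC testing by OD600 in MHB, reported relative to the ancestral strain.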

[2] = tested on: A. baumannii ATCC 17978 (SEN) and A. baumannii ATCC BAA-1605 (MDR); assay: as above; type: cell-based, Acinetobacter baumannii
Summary of the method: as §1

[3] = tested on: E. coli ATCC 25922 (SEN) and E. coli NCTC13846 (MDR); assay: Adaptive laboratory evolution (ALE), relative MIC of evolved lines; type: cell-based, Escherichia coli
Summary of the method: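 Ten parallel populations per antibiotic–ancestor pair were evolved in MHB at 37 °C, starting near 50% growth-inhibiting drug. Every 72 h they were passaged into 0.5–2.5× increasing concentrations, keeping the highest-drug well with OD600 > 0.2.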

[4] = EC-SEN (Escherichia coli ATCC 25922), evolved line 3
[5] = EC-SEN (Escherichia coli ATCC 25922), evolved line 4
[6] = EC-SEN (Escherichia coli ATCC 25922), evolved line 5
[7] = EC-SEN (Escherichia coli ATCC 25922), evolved line 7
[8] = EC-SEN (Escherichia coli ATCC 25922), evolved line 10

## CC(C)c1ccc(Cn2ccc3c4c(N)nc(NC5CC5)nc4ccc32)cc1 [SCH79797]
[1]; FoR assay, evolved line 1
  Relative MIC: 1
[1]; FoR assay, evolved line 2
  Relative MIC: 1
[1]; FoR assay, evolved line 3
  Relative MIC: 1
[1]; evolved line 1
  MIC of evolved line: 4 µg/mL
[1]; evolved line 2
  MIC of evolved line: 4 µg/mL
[1]; evolved line 3
  MIC of evolved line: 4 µg/mL
[1]; evolved line 1 versus ancestor
  Relative MIC: 1
[1]; evolved line 2 versus ancestor
  Relative MIC: 1
[1]; evolved line 3 versus ancestor
  Relative MIC: 1
[2]; Acinetobacter baumannii ATCC 17978 (AB-SEN), evolved line 1
  MIC of evolved line: 8 µg/mL
[2]; Acinetobacter baumannii ATCC 17978 (AB-SEN), evolved line 2
  MIC of evolved line: 8 µg/mL
[2]; Acinetobacter baumannii ATCC 17978 (AB-SEN), evolved line 3
  MIC of evolved line: 8 µg/mL
[2]; Acinetobacter baumannii ATCC 17978 (AB-SEN), evolved line 1 versus ancestor
  Relative MIC: 2
[2]; Acinetobacter baumannii ATCC 17978 (AB-SEN), evolved line 2 versus ancestor
  Relative MIC: 2
[2]; Acinetobacter baumannii ATCC 17978 (AB-SEN), evolved line 3 versus ancestor
  Relative MIC: 2
[2]; Acinetobacter baumannii ATCC BAA 1605 (AB-MDR), evolved line 2
  MIC of evolved line: 4 µg/mL
[2]; Acinetobacter baumannii ATCC BAA 1605 (AB-MDR), evolved line 1
  MIC of evolved line: 2 µg/mL
[2]; Acinetobacter baumannii ATCC BAA 1605 (AB-MDR), evolved line 1 versus ancestor
  Relative MIC: 1
[2]; Acinetobacter baumannii ATCC BAA 1605 (AB-MDR), evolved line 2 versus ancestor
  Relative MIC: 1
[2]; Acinetobacter baumannii ATCC BAA 1605 (AB-MDR), evolved line 3
  MIC of evolved line: 4 µg/mL
[2]; Acinetobacter baumannii ATCC BAA 1605 (AB-MDR), evolved line 3 versus ancestor
  Relative MIC: 1
[2]; FoR assay, Acinetobacter baumannii ATCC 17978 (AB-SEN), evolved line 1
  Relative MIC: 2
[2]; FoR assay, Acinetobacter baumannii ATCC 17978 (AB-SEN), evolved line 2
  Relative MIC: 2
[2]; FoR assay, Acinetobacter baumannii ATCC 17978 (AB-SEN), evolved line 3
  Relative MIC: 2
[2]; FoR assay, Acinetobacter baumannii ATCC BAA 1605 (AB-MDR), evolved line 1
  Relative MIC: 1
[2]; FoR assay, Acinetobacter baumannii ATCC BAA 1605 (AB-MDR), evolved line 2
  Relative MIC: 1
[2]; FoR assay, Acinetobacter baumannii ATCC BAA 1605 (AB-MDR), evolved line 3
  Relative MIC: 1
[3]; ALE, Escherichia coli ATCC 25922 (EC-SEN), evolved line 1
  Relative MIC: 4
[3]; ALE, Escherichia coli ATCC 25922 (EC-SEN), evolved line 2
  Relative MIC: 4
[3]; ALE, Escherichia coli ATCC 25922 (EC-SEN), evolved line 3
  Relative MIC: 4
[3]; ALE, Escherichia coli ATCC 25922 (EC-SEN), evolved line 4
  Relative MIC: 4
[3]; ALE, Escherichia coli ATCC 25922 (EC-SEN), evolved line 5
  Relative MIC: 4
[3]; ALE, Escherichia coli ATCC 25922 (EC-SEN), evolved line 7
  Relative MIC: 4
[3]; ALE, Escherichia coli ATCC 25922 (EC-SEN), evolved line 8
  Relative MIC: 2
[3]; ALE, Escherichia coli ATCC 25922 (EC-SEN), evolved line 9
  Relative MIC: 2
[3]; ALE, Escherichia coli ATCC 25922 (EC-SEN), evolved line 10
  Relative MIC: 4
[3]; EC-SEN (E. coli ATCC 25922), evolved line 1 of the given antibiotic
  MIC of evolved line: 16 µg/mL
[3]; EC-SEN (E. coli ATCC 25922), evolved line 1 vs ancestor
  Relative MIC: 4
[3]; EC-SEN (E. coli ATCC 25922), evolved line 2 of the given antibiotic
  MIC of evolved line: 16 µg/mL
[3]; EC-SEN (E. coli ATCC 25922), evolved line 2 vs ancestor
  Relative MIC: 4
[3]; EC-SEN (E. coli ATCC 25922), evolved line 3 of the given antibiotic
  MIC of evolved line: 16 µg/mL
[3]; EC-SEN (E. coli ATCC 25922), evolved line 3 vs ancestor
  Relative MIC: 4
[3]; EC-SEN (E. coli ATCC 25922), evolved line 4 of the given antibiotic
  MIC of evolved line: 16 µg/mL
[3]; EC-SEN (E. coli ATCC 25922), evolved line 4 vs ancestor
  Relative MIC: 4
[3]; EC-SEN (E. coli ATCC 25922), evolved line 5 of the given antibiotic
  MIC of evolved line: 16 µg/mL
[3]; EC-SEN (E. coli ATCC 25922), evolved line 5 vs ancestor
  Relative MIC: 4
[3]; EC-SEN (E. coli ATCC 25922), evolved line 7 of the given antibiotic
  MIC of evolved line: 16 µg/mL
[3]; EC-SEN (E. coli ATCC 25922), evolved line 7 vs ancestor
  Relative MIC: 4
[3]; EC-SEN (E. coli ATCC 25922), evolved line 8 of the given antibiotic
  MIC of evolved line: 8 µg/mL
[3]; EC-SEN (E. coli ATCC 25922), evolved line 8 vs ancestor
  Relative MIC: 2
[3]; EC-SEN (E. coli ATCC 25922), evolved line 9 of the given antibiotic
  MIC of evolved line: 8 µg/mL
[3]; EC-SEN (E. coli ATCC 25922), evolved line 9 vs ancestor
  Relative MIC: 2
[3]; EC-SEN (E. coli ATCC 25922), evolved line 10 of the given antibiotic
  MIC of evolved line: 16 µg/mL
[3]; EC-SEN (E. coli ATCC 25922), evolved line 10 vs ancestor
  Relative MIC: 4
[3]; [4]
  Relative MIC: 4
  Relative MIC (log10): 0.6021 log10
[3]; [5]
  Relative MIC: 4
  Relative MIC (log10): 0.6021 log10
[3]; [6]
  Relative MIC: 4
  Relative MIC (log10): 0.6021 log10
[3]; [7]
  Relative MIC: 4
  Relative MIC (log10): 0.6021 log10
[3]; EC-SEN (Escherichia coli ATCC 25922), evolved line 8
  Relative MIC: 2
[3]; EC-SEN (Escherichia coli ATCC 25922), evolved line 9
  Relative MIC: 2
[3]; [8]
  Relative MIC: 4
  Relative MIC (log10): 0.6021 log10
[3]; EC-SEN, Escherichia coli ATCC 25922, evolved line 1
  Relative MIC: 4
[3]; EC-SEN, Escherichia coli ATCC 25922, evolved line 2
  Relative MIC: 4
[3]; Escherichia coli ATCC 25922 (EC-SEN), evolved line 1
  Relative MIC: 4
[3]; Escherichia coli ATCC 25922 (EC-SEN), evolved line 2
  Relative MIC: 4
[3]; Escherichia coli ATCC 25922 (EC-SEN), evolved line 3
  Relative MIC: 4
[3]; Escherichia coli ATCC 25922 (EC-SEN), evolved line 4
  Relative MIC: 4
[3]; Escherichia coli ATCC 25922 (EC-SEN), evolved line 5
  Relative MIC: 4
[3]; Escherichia coli ATCC 25922 (EC-SEN), evolved line 7
  Relative MIC: 4
[3]; Escherichia coli ATCC 25922 (EC-SEN), evolved line 8
  Relative MIC: 2
[3]; Escherichia coli ATCC 25922 (EC-SEN), evolved line 9
  Relative MIC: 2
[3]; Escherichia coli ATCC 25922 (EC-SEN), evolved line 10
  Relative MIC: 4
